Test results as given in the Kinase Knowledgebase extract (Sharma et al. 2016).

Target: EGFR (human) (UniProt P00533)
Conditions: hl-60

Sequence of EGFR (human) (P00533 whole entry, looked up): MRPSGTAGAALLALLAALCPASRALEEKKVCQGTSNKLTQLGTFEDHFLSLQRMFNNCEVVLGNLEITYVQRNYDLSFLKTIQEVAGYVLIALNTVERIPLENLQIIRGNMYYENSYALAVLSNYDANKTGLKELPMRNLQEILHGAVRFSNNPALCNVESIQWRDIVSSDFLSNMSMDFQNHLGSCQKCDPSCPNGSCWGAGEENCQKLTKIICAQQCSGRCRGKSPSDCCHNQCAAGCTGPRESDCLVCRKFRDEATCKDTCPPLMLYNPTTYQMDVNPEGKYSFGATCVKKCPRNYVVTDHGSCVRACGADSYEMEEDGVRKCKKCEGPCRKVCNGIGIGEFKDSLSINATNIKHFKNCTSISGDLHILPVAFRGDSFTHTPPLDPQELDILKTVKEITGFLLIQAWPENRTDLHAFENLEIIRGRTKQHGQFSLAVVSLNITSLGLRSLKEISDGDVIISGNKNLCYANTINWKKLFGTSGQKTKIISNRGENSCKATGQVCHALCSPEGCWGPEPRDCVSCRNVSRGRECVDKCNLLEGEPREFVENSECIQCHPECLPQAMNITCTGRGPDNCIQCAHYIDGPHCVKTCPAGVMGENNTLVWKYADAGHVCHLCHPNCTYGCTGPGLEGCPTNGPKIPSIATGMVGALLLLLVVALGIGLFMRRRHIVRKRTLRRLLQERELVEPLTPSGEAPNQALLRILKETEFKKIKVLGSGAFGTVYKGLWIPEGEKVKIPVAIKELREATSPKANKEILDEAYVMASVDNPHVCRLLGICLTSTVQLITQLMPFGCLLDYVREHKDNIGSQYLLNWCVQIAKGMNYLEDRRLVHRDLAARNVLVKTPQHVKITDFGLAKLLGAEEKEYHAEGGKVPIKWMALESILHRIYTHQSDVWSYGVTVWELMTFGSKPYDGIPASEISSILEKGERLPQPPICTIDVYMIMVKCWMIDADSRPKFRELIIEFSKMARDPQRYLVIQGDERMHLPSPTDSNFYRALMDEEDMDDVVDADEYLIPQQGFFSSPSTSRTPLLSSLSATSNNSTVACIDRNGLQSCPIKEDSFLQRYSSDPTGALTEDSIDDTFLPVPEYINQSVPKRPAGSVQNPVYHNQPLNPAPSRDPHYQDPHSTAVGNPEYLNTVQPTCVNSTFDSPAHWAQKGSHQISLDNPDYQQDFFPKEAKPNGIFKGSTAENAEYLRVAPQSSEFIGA

| Compound | IC50 |
| --- | --- |
| O=C(CCCCCC(=O)Nc1ccc(O)c(C(=O)Nc2cccc(C(F)(F)F)c2)c1)NO | > 100 µM |
| C#Cc1cccc(NC(=O)c2cc(NC(=O)CCCCCCC(=O)NO)ccc2O)c1 | > 100 µM |
| C#Cc1cccc(NC(=O)c2cc(NC(=O)CCCCCC(=O)NO)ccc2O)c1 | > 100 µM |
| O=C(CCCCCC(=O)Nc1ccc(O)c(C(=O)Nc2ccc(Cl)c(C(F)(F)F)c2)c1)NO | > 100 µM |
| C#Cc1cccc(NC(=O)c2cccc(NC(=O)CCCCCC(=O)NO)c2)c1 | > 100 µM |

Continued, values first:

| IC50 | Compound |
| --- | --- |
| > 100 µM | O=C(CCCCCC(=O)Nc1ccc(O)c(C(=O)Nc2ccc(OCc3cccc(F)c3)c(Cl)c2)c1)NO |
| > 100 µM | O=C(CCCCCC(=O)Nc1ccc(O)c(C(=O)Nc2cccc(F)c2)c1)NO |
| > 100 µM | O=C(CCCCCC(=O)Nc1ccc(O)c(C(=O)Nc2ccc(F)c(Cl)c2)c1)NO |
| > 100 µM | O=C(CCCCCC(=O)Nc1ccc(O)c(C(=O)Nc2ccc(Cl)c(Cl)c2)c1)NO |
| > 100 µM | O=C(CCCCCC(=O)Nc1ccc(O)c(C(=O)Nc2ccc(F)c(F)c2)c1)NO |
